Experimental findings from patent US8026378B2, “Glyceryl ether compounds and their use” (Segetis, Inc., priority 2005, dated 2011) are described below.

The data set in a line: Emulsifying properties: hexane/water emulsions. Type of data set: physicochemical. As to conditions: for emulsifying properties on addition of salt: addition of 0.2% calcium chloride or magnesium chloride, mixture of isomers; for stability of emulsions of water in hexane: aqueous solutions of the mixture of isomers. An excerpt:
[…] The emulsifying properties of compounds (12a) and (12b) were not disrupted by the addition of 0.2% calcium chloride or magnesium chloride.

`CCCCCCCCCCCCCCCCC(CO)OCC(O)CO` (stereo not drawn) [Compound 13b]: the “emulsifying properties on addition of salt” value (from here on “emulsifying properties”) is listed as “not substantially disrupted” and the “stability of emulsions of water in hexane” value is recorded as “able to support stability of emulsions of water in hexane”.
For the compound `CCCCCCCCC(CO)OCC(O)CO` (stereo not drawn) [Compound 12b], the “emulsifying properties” value is recorded as “not disrupted”.
On the same count and under the same terms, for `CCCCCCCCC(O)COCC(O)CO` (stereo not drawn) [Compound 12a] the value was “not disrupted”.
With `CCCCCCCCCCCCCCCCC(O)COCC(O)CO` (stereo not drawn) [Compound 13a], the “emulsifying properties” value is “not substantially disrupted” and the “stability of emulsions of water in hexane” value is reported as “able to support stability of emulsions of water in hexane”.
